# Source: patent publication US12357650B2, “Methods and compositions for cancer therapies that include delivery of halogenated thymidines and thymidine phosphorlylase inhibitors in combination with radiation” (Shuttle Pharmaceuticals, Inc., priority 2017, dated 2025)
# Where “and” joins values, the source holds several entries; their conditions need not be identical. Equal entries are not always repeated. Where two headings read alike, the source gives them in different places.
# Key:
# [1] = system: DNA of tumors and adjacent normal tissue; conditions: small series of patients with head and neck cancers or liver metastases from colorectal cancer; cited from earlier work
# [2] = Pharmacokinetic profile of IUdR (100 mg/kg) with and without Tipiracil in rats following single oral administration; type: in vivo, male Sprague-Dawley rats
# Protocol: The purpose of this study was to determine the pharmacokinetics parameters of IUdR in male Sprague-Dawley rats following single oral (PO) administration the IUdR (i.e., Compound A) and Tipiracil (i.e., Compound B).
# A control formulation was prepared where Compound A was dissolved in 5% DMSO+95% PBS to yield a final concentration of 10 mg/mL for oral administration. The prepared formulation was white suspension (pH˜7).
# A second formulation was prepared where Compound A and Compound B were dissolved in 5% DMSO+95% PBS to yield a final concentration of 10 mg/mL (Compound A) and 0.79 mg/mL (Compound B) for oral administration. The prepared formulation was white suspension (pH˜7).
# Animal Acquisition and Assignment to Study. A total of 8 male experimental Sprague-Dawley Rats were transferred from stock colony, and 6 animals were placed on study.
# Dose Administration. The test article was administered via a single oral administration.
# Sample Collection and Bioanalysis. Blood samples (approximately 200 μL/sample) were collected via jugular vein at Pre-dose and Post-dose (5 min, 15 min, 30 min, 1 h, 2 h, 4 h, 6 h, 8 h and 24 h). Blood samples were placed into tubes containing K2EDTA and centrifuged conditions at 8000 rpm for 6 minutes at 2-8° C. to separate plasma from the samples. Following centrifugation, the resulting plasma were transferred to clean tubes and stored frozen at −80° C. pending bioanalysis.
# Pharmacokinetic Analysis. The PK analysis and interpretation of the results were conducted by Medicilon Preclinical Research (Shanghai) LLC. A non-compartmental module of WinNonlin® Professional was used to calculate parameters. Any BLQs (LLOQ=10.0 ng/mL for Compound A) were omitted when calculate the PK parameters.
# Clinical Observations. No abnormal observations were noted.
compound,measurement,setting,value
"O=c1[nH]c(=O)n([C@H]2C[C@H](O)[C@@H](CO)O2)cc1I [Compound A, 5-iodo-2′-deoxyuridine]",% IUdR-DNA incorporation in adjacent normal tissue,[1],less than 1%
same,% IUdR-DNA incorporation in tumors,[1],≤ 5%
same,Plasma Concentration of Compound A,"[2]; PO-100 mg/kg Compound A alone or + 7.9 mg/kg Compound B, 0.083 hr, individual animals, LLOQ 10 ng/mL",192.41 ng/mL and 168.24 ng/mL
same,Plasma Concentration of Compound A,"[2]; PO-100 mg/kg Compound A alone or + 7.9 mg/kg Compound B, 0.25 hr, individual animals, LLOQ 10 ng/mL",628.30 ng/mL and 538.67 ng/mL
same,Plasma Concentration of Compound A,"[2]; PO-100 mg/kg Compound A alone or + 7.9 mg/kg Compound B, 0.5 hr, individual animals, LLOQ 10 ng/mL",755.39 ng/mL and 684.80 ng/mL
same,Plasma Concentration of Compound A,"[2]; PO-100 mg/kg Compound A alone or + 7.9 mg/kg Compound B, 1 hr, individual animals, LLOQ 10 ng/mL",596.55 ng/mL and 772.49 ng/mL
same,Plasma Concentration of Compound A,"[2]; PO-100 mg/kg Compound A alone or + 7.9 mg/kg Compound B, 2 hr, individual animals, LLOQ 10 ng/mL",645.17 ng/mL and 943.79 ng/mL
same,Plasma Concentration of Compound A,"[2]; PO-100 mg/kg Compound A alone or + 7.9 mg/kg Compound B, 4 hr, individual animals, LLOQ 10 ng/mL",316.82 ng/mL and 441.37 ng/mL
same,Plasma Concentration of Compound A,"[2]; PO-100 mg/kg Compound A alone or + 7.9 mg/kg Compound B, 6 hr, individual animals, LLOQ 10 ng/mL",BLQ and 56.61 ng/mL
same,Plasma Concentration of Compound A,"[2]; PO-100 mg/kg Compound A alone or + 7.9 mg/kg Compound B, 8 hr, individual animals, LLOQ 10 ng/mL",BLQ
same,Plasma Concentration of Compound A,"[2]; PO-100 mg/kg Compound A alone or + 7.9 mg/kg Compound B, 24 hr, individual animals, LLOQ 10 ng/mL",BLQ
same,AUC(0-inf),"[2]; male, Sprague-Dawley, rat, plasma, 100 mg/kg, single oral dose, Example 1, sub-heading prints PO-20 (Compound A) alone or + 7.9 (Compound B) mg/kg, individual animals",2630 ng·h/mL
same,half-life,"[2]; male, Sprague-Dawley, rat, plasma, 100 mg/kg, single oral dose, Example 1, sub-heading prints PO-20 (Compound A) alone or + 7.9 (Compound B) mg/kg, individual animals, read-out: t1/2 of Compound A (converted)",0.89 h
same,concentration at 0.083 hr,"[2]; male, Sprague-Dawley, rat, plasma, oral, 100 mg/kg, PO-100 mg/kg Compound A alone or + 7.9 mg/kg Compound B, 0.083 hr, group mean, read-out: Plasma Concentration of Compound A, Mean",184 ng/mL
same,concentration at 0.083 hr,"[2]; male, Sprague-Dawley, rat, plasma, oral, 100 mg/kg, PO-100 mg/kg Compound A alone or + 7.9 mg/kg Compound B, 0.083 hr, individual animals, LLOQ 10 ng/mL, read-out: Plasma Concentration of Compound A",191 ng/mL
same,concentration at 0.25 hr,"[2]; male, Sprague-Dawley, rat, plasma, oral, 100 mg/kg, PO-100 mg/kg Compound A alone or + 7.9 mg/kg Compound B, 0.25 hr, group mean, read-out: Plasma Concentration of Compound A, Mean",552 ng/mL
same,concentration at 0.25 hr,"[2]; male, Sprague-Dawley, rat, plasma, oral, 100 mg/kg, PO-100 mg/kg Compound A alone or + 7.9 mg/kg Compound B, 0.25 hr, individual animals, LLOQ 10 ng/mL, read-out: Plasma Concentration of Compound A",489 ng/mL
same,concentration at 0.5 hr,"[2]; male, Sprague-Dawley, rat, plasma, oral, 100 mg/kg, PO-100 mg/kg Compound A alone or + 7.9 mg/kg Compound B, 0.5 hr, group mean, read-out: Plasma Concentration of Compound A, Mean",689 ng/mL
same,concentration at 0.5 hr,"[2]; male, Sprague-Dawley, rat, plasma, oral, 100 mg/kg, PO-100 mg/kg Compound A alone or + 7.9 mg/kg Compound B, 0.5 hr, individual animals, LLOQ 10 ng/mL, read-out: Plasma Concentration of Compound A",627 ng/mL
same,concentration at 1 hr,"[2]; male, Sprague-Dawley, rat, plasma, oral, 100 mg/kg, PO-100 mg/kg Compound A alone or + 7.9 mg/kg Compound B, 1 hr, group mean, read-out: Plasma Concentration of Compound A, Mean",642 ng/mL
same,concentration at 1 hr,"[2]; male, Sprague-Dawley, rat, plasma, oral, 100 mg/kg, PO-100 mg/kg Compound A alone or + 7.9 mg/kg Compound B, 1 hr, individual animals, LLOQ 10 ng/mL, read-out: Plasma Concentration of Compound A",556 ng/mL
same,concentration at 2 hr,"[2]; male, Sprague-Dawley, rat, plasma, oral, 100 mg/kg, PO-100 mg/kg Compound A alone or + 7.9 mg/kg Compound B, 2 hr, group mean, read-out: Plasma Concentration of Compound A, Mean",788 ng/mL
same,concentration at 2 hr,"[2]; male, Sprague-Dawley, rat, plasma, oral, 100 mg/kg, PO-100 mg/kg Compound A alone or + 7.9 mg/kg Compound B, 2 hr, individual animals, LLOQ 10 ng/mL, read-out: Plasma Concentration of Compound A",774 ng/mL
same,concentration at 4 hr,"[2]; male, Sprague-Dawley, rat, plasma, oral, 100 mg/kg, PO-100 mg/kg Compound A alone or + 7.9 mg/kg Compound B, 4 hr, group mean, read-out: Plasma Concentration of Compound A, Mean",345 ng/mL
same,concentration at 4 hr,"[2]; male, Sprague-Dawley, rat, plasma, oral, 100 mg/kg, PO-100 mg/kg Compound A alone or + 7.9 mg/kg Compound B, 4 hr, individual animals, LLOQ 10 ng/mL, read-out: Plasma Concentration of Compound A",276 ng/mL
same,concentration at 6 hr,"[2]; male, Sprague-Dawley, rat, plasma, oral, 100 mg/kg, PO-100 mg/kg Compound A alone or + 7.9 mg/kg Compound B, 6 hr, group mean (BLQ omitted), read-out: Plasma Concentration of Compound A, Mean",55.3 ng/mL
same,concentration at 6 hr,"[2]; male, Sprague-Dawley, rat, plasma, oral, 100 mg/kg, PO-100 mg/kg Compound A alone or + 7.9 mg/kg Compound B, 6 hr, individual animals, LLOQ 10 ng/mL, read-out: Plasma Concentration of Compound A",54 ng/mL
same,concentration at 8 hr,"[2]; male, Sprague-Dawley, rat, plasma, oral, 100 mg/kg, PO-100 mg/kg Compound A alone or + 7.9 mg/kg Compound B, 8 hr, individual animals, LLOQ 10 ng/mL",14.1 ng/mL
same,AUC(0-t),"[2]; male, Sprague-Dawley, rat, plasma, po, 100 mg/kg, oral administration, Example 1 (100 mg/kg IUdR, ± 7.9 mg/kg Tipiracil), comparison table, mean, read-out: AUC(0-t) of Compound A",2720 ng·h/mL
same,Cmax,"[2]; male, Sprague-Dawley, rat, plasma, po, 100 mg/kg, oral administration, Example 1 (100 mg/kg IUdR, ± 7.9 mg/kg Tipiracil), comparison table, mean, read-out: Cmax of Compound A",824 ng/mL
same,Tmax,"[2]; male, Sprague-Dawley, rat, plasma, po, 100 mg/kg, single oral dose, Example 1, sub-heading prints PO-20 (Compound A) alone or + 7.9 (Compound B) mg/kg, group mean",1.5 h
same,Cmax,"[2]; male, Sprague-Dawley, rat, plasma, po, 100 mg/kg, single oral dose, Example 1, sub-heading prints PO-20 (Compound A) alone or + 7.9 (Compound B) mg/kg, group mean, read-out: Cmax of Compound A, Mean",824 ng/mL
